Assay results published in patent US9994623B2, “Entomotoxic polypeptides” (INSTITUT NATIONAL DE LA RECHERCHE AGRONOMIQUE, priority 2013, dated 2018).
Bridge positions count the residues as written; N and C are the ends. Ends that are not written are not given here. Peptide text beside a SMILES is read from it.

Assays:
[1] = tested on: Spodoptera frugiperda Sf9 cells; assay: Entomotoxicity (LC50) on cultured Sf9 cells, Celltiter-Blue viability test; assay type: cell-based; settings: for toxicity / entomotoxic properties (in words): Sf9 cells, compared with reference PA1b
Procedure: The entomototoxic properties were determined by evaluation of the LC50 (50% lethal concentration) on cultures of Spodoptera frugiperda Sf9 cells, as described by Rahioui et al. (Biochimie, 89, 1539-43, 2007). The cells were cultured at 27° C. in medium from Lonza supplemented with 5% fetal calf serum (FCS) and 0.1% gentamicin, then seeded into 96-well plates, 24 h before the experiments (15,000 cells/wells) and exposed to increasing concentrations of synthetic peptide. After 24 h, the cell viability was determined using the Celltiter-Blue viability test (Promega), in accordance with the manufacturer's instructions. After the addition of the dye, the cells were incubated at 27° C. for 4 h. The absorbance was then measured at 570 and 600 nm using a microplate reader (MR 7000, Dynatech Laboratories Inc., USA).

PA1b-binding site = assay: Affinity for the PA1b-binding site, ligand binding assay with 125I-labeled toxin; settings: ligand binding with toxin labeled with iodine 125I; dash = no binding in the range of concentrations tested
Procedure: The affinity for the PA1b-binding site was determined by means of ligand binding assays using a toxin labeled with iodine ^125I, as previously described (Gressent et al., Eur J Biochem, 270, 2429-35, 2003).

Molecule | toxicity / entomotoxic properties (in words) [1] | Ki (PA1b-binding site) [nM] | toxicity relative to PA1b ([1]; fold versus pea PA1b)
QSCIGFCSVFDSKPLCGSSRCRCNKPLNNPFVGICERRPST [QT41] | do not have entomotoxic properties |  | 
CC[C@H](C)[C@@H]1NC(=O)[C@H](Cc2ccccc2)NC(=O)[C@@H]2CSSC[C@@H]3NC(=O)[C@H](C)NC(=O)[C@H](CCC(=O)O)NC(=O)CNC(=O)[C@@H](NC(=O)[C@H](CCCCN)NC(=O)[C@H](C)N)CSSC[C@H](NC(=O)CNC(=O)[C@H](CC(=O)O)NC(=O)CNC(=O)[C@H](C)NC(=O)[C@H](CC(N)=O)NC(=O)[C@H](CSSC[C@@H](C(=O)N[C@@H](C)C(=O)N[C@@H](CCC(N)=O)C(=O)N[C@@H](CC(C)C)C(=O)N[C@@H](CO)C(=O)N[C@H](C(=O)O)[C@@H](C)O)NC(=O)[C@H](Cc4ccccc4)NC(=O)CNC(=O)[C@@H]4CCCN4C(=O)[C@H](CC(C)C)NC(=O)[C@H]([C@@H](C)O)NC(=O)[C@H](CC(C)C)NC(=O)[C@H](Cc4ccc(O)cc4)NC(=O)[C@H](C)NC(=O)[C@H](CC(=O)O)NC(=O)[C@H]([C@@H](C)O)NC1=O)NC(=O)[C@H](Cc1ccccc1)NC(=O)[C@H](CC(N)=O)NC(=O)[C@H](Cc1ccccc1)NC(=O)[C@H](CCC(N)=O)NC(=O)[C@H]([C@@H](C)O)NC(=O)[C@H](CC(=O)O)NC3=O)C(=O)N[C@@H](CCCNC(=N)N)C(=O)N2 [AS40] (H-AKCGEACDTQFNFCNAGDGCRCFITDAYLTLPGFCAQLST-OH; disulfide 3-20, 7-22, 14-35 (inferred); N-terminus and C-terminus assumed) | toxicity comparable to that of the reference PA1b peptide | 10.3 ± 2 | 
CC[C@H](C)[C@@H]1NC(=O)CNC(=O)[C@H](CO)NC(=O)[C@@H](NC(=O)[C@H](CC(=O)O)NC(=O)[C@H](C)N)CSSC[C@@H]2NC(=O)[C@H](CC(=O)O)NC(=O)[C@H](CO)NC(=O)[C@H](CO)NC(=O)[C@H](CCCNC(=N)N)NC(=O)[C@@H]3CSSC[C@@H](C(=O)N[C@H](C(=O)N[C@@H](CC(N)=O)C(=O)N4CCC[C@H]4C(=O)N[C@H](C(=O)N[C@@H](CO)C(=O)O)[C@@H](C)CC)[C@@H](C)CC)NC(=O)[C@H](Cc4ccccc4)NC(=O)CNC(=O)CNC(=O)[C@H]([C@@H](C)CC)NC(=O)[C@H](CC(C)C)NC(=O)[C@H](C)NC(=O)[C@H]([C@@H](C)CC)NC(=O)[C@@H]4CCCN4C(=O)[C@H]([C@@H](C)CC)NC(=O)[C@H](CSSC[C@H](NC1=O)C(=O)N[C@@H](CO)C(=O)N1CCC[C@H]1C(=O)N[C@@H](Cc1ccccc1)C(=O)N[C@@H](CCC(=O)O)C(=O)N[C@@H](CCSC)C(=O)N1CCC[C@H]1C(=O)N1CCC[C@H]1C(=O)N3)NC(=O)[C@H](CCCNC(=N)N)NC2=O [AS37] (H-ADCSGICSPFEMPPCRSSDCRCIPIALIGGFCINPIS-OH; disulfide 3-20, 7-22, 15-32 (inferred); N-terminus and C-terminus assumed) | toxicity comparable to that of the reference PA1b peptide | 15 ± 2 | 
ASCPNVGAVCSPFETKPCGNVKDCRCLPWGLFFGTCINPTG (disulfide 3-24, 10-26, 18-36) [AG41] |  | 1.3 ± 0.6 | close to ten times higher than that of PA1b
EFCSSVGSFCSPFNTNPCGYLGNCRCVPYYLYGGTCENPFG (disulfide 3-24, 10-26, 18-36 (inferred)) [EG41] | toxicity comparable to that of the reference PA1b peptide | 72.8 ± 2.7 | 
CC[C@H](C)[C@@H]1NC(=O)[C@H](C(C)C)NC(=O)[C@H](CC(C)C)NC(=O)CNC(=O)[C@H](C(C)C)NC(=O)[C@@H]2CCCN2C(=O)[C@H]([C@@H](C)CC)NC(=O)[C@@H]2CSSC[C@@H]3NC(=O)[C@H](C(C)C)NC(=O)CNC(=O)[C@H](CC(N)=O)NC(=O)[C@@H](NC(=O)[C@H](CO)NC(=O)[C@H](C)N)CSSC[C@H](NC(=O)[C@H](C)NC(=O)[C@H](CO)NC(=O)[C@H]([C@@H](C)O)NC(=O)CNC(=O)[C@H](CSSC[C@@H](C(=O)N[C@@H](CCCNC(=N)N)C(=O)N[C@@H](CC(N)=O)C(=O)N4CCC[C@H]4C(=O)N[C@@H](CO)C(=O)NCC(=O)O)NC(=O)[C@H](Cc4ccc(O)cc4)NC(=O)CNC1=O)NC(=O)[C@@H]1CCCN1C(=O)[C@@H]1CCCN1C(=O)[C@H](CCSC)NC(=O)[C@H](CCC(=O)O)NC(=O)[C@H](Cc1ccccc1)NC(=O)[C@@H]1CCCN1C(=O)[C@H](CO)NC3=O)C(=O)N[C@@H](CCCNC(=N)N)C(=O)N2 [PA1b, reference compound] (H-ASCNGVCSPFEMPPCGTSACRCIPVGLVIGYCRNPSG-OH; disulfide 3-20, 7-22, 15-32 (inferred); N-terminus and C-terminus assumed) |  | 17 ± 1.1 | 
GQCARVGMRCSRALPNPCGDIVTCRCVHLHLVGSTCIDYTGDGL [GL44] | do not have entomotoxic properties |  | 
DECWGPCSVLQTPPCPLSKCYCIPLFLVVGYCSHASS [DS37] | do not have entomotoxic properties | 694 ± 2 | 
